Source: ChEMBL document CHEMBL1201862, “PubChem BioAssay data set” (2004)
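Grown in 96-well plates, cells were treated for 48 hours with each compound at five concentrations. Insufficient inhibition: endpoint recorded as highest concentration tested. GI50 marks 50% less growth.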 The source made the active and inactive calls. No stated cut-off is given here; in the data, active = GI50 up to about 1.1 µM and inactive = higher.

Columns and labels:
Experiment in all cases: NCI-60 cell line screen, 48 h
UACC-257 = tested on: UACC-257
MCF7 = tested on: MCF7
SF-295 = tested on: SF-295
Hs-578T = tested on: Hs-578T
SF-539 = tested on: SF-539
HT-29 = tested on: HT-29
RPMI-8226 = tested on: RPMI-8226
Malme-3M = tested on: Malme-3M
NCI-H522 = tested on: NCI-H522
786-0 = tested on: 786-0
LOX IMVI = tested on: LOX IMVI
PC-3 = tested on: PC-3
HCT-116 = tested on: HCT-116
OVCAR-8 = tested on: OVCAR-8
SK-MEL-28 = tested on: SK-MEL-28
COLO 205 = tested on: COLO 205
OVCAR-5 = tested on: OVCAR-5
UO-31 = tested on: UO-31

| SMILES | GI50 (UACC-257) | GI50 (MCF7) | GI50 (SF-295) | GI50 (Hs-578T) | GI50 (SF-539) | GI50 (HT-29) | GI50 (RPMI-8226) | GI50 (Malme-3M) | GI50 (NCI-H522) | GI50 (786-0) | GI50 (LOX IMVI) | GI50 (PC-3) | GI50 (HCT-116) | GI50 (OVCAR-8) | GI50 (SK-MEL-28) | GI50 (COLO 205) | GI50 (OVCAR-5) | GI50 (UO-31) |
| --- | --- | --- | --- | --- | --- | --- | --- | --- | --- | --- | --- | --- | --- | --- | --- | --- | --- | --- |
| Cc1cc(C(F)(F)F)cc(-n2nc(NS(=O)(=O)c3cc(C)c(Cl)cc3S)nc2N)n1 | > 100 µM (inactive) | 45.1 µM (inactive) | 8.79 µM (inactive) | 41 µM (inactive) | > 10 µM (inactive) | 42 µM (inactive) | 65.8 µM (inactive) | > 100 µM (inactive) | 32 µM (inactive) | 44.6 µM (inactive) | 18.7 µM (inactive) | 47.4 µM (inactive) | 33.7 µM (inactive) | 45.4 µM (inactive) | 55.3 µM (inactive) | > 100 µM (inactive) |  |  |
| COc1ccc(C2c3cc4c(cc3OC(N3CCCCC3)C2C)OCO4)cc1 (stereo not given) | > 100 µM (inactive) | > 100 µM (inactive) | 54.6 µM (inactive) | 33.6 µM (inactive) | > 100 µM (inactive) | > 100 µM (inactive) | > 100 µM (inactive) |  | 83.6 µM (inactive) | 80.2 µM (inactive) | > 100 µM (inactive) | > 100 µM (inactive) | > 100 µM (inactive) | > 100 µM (inactive) | > 100 µM (inactive) | > 100 µM (inactive) | > 100 µM (inactive) | 85.3 µM (inactive) |
| COc1cc(C2=C(c3cc(OC)c4ccccc4c3OC)C(=O)c3ccccc3C2=O)c(OC)c2ccccc12 | > 100 µM (inactive) | > 100 µM (inactive) | > 100 µM (inactive) | > 100 µM (inactive) | > 100 µM (inactive) | > 100 µM (inactive) |  | 62.5 µM (inactive) | > 100 µM (inactive) | > 100 µM (inactive) | > 100 µM (inactive) | > 100 µM (inactive) | > 100 µM (inactive) | > 100 µM (inactive) | > 100 µM (inactive) | > 100 µM (inactive) | 75.9 µM (inactive) | > 100 µM (inactive) |
| Cc1ccc(N)c(S)c1 | 23.3 µM (inactive) | 18.5 µM (inactive) | 18 µM (inactive) | 38 µM (inactive) | 17.5 µM (inactive) | 19.4 µM (inactive) |  | 30.5 µM (inactive) | 17.9 µM (inactive) | 16.1 µM (inactive) | 16.4 µM (inactive) | 15.3 µM (inactive) | 32.1 µM (inactive) | 17.1 µM (inactive) | 27.5 µM (inactive) | 22.7 µM (inactive) | 22.3 µM (inactive) | 13.8 µM (inactive) |
| COc1c(C)c(C/C=C(\C)CCCCO)c(OC)c(OC)c1OC | > 100 µM (inactive) | > 100 µM (inactive) | 48.6 µM (inactive) | > 100 µM (inactive) | > 100 µM (inactive) | > 100 µM (inactive) | 10.3 µM (inactive) |  | > 100 µM (inactive) | > 100 µM (inactive) | 25.5 µM (inactive) | > 100 µM (inactive) | > 100 µM (inactive) | > 100 µM (inactive) |  | > 100 µM (inactive) | > 100 µM (inactive) | > 100 µM (inactive) |
| C=C(C)C1CC2(C)C(C)CC(O)CC2C(OC(=O)C=C(C)C)C1O (stereo not given) | 53.1 µM (inactive) | 29.6 µM (inactive) | 23 µM (inactive) | 27.1 µM (inactive) | 30.9 µM (inactive) | 24.4 µM (inactive) |  | 45.6 µM (inactive) | 24.3 µM (inactive) | > 100 µM (inactive) | 55 µM (inactive) | 37.6 µM (inactive) | 52.7 µM (inactive) | 40.6 µM (inactive) | 51.2 µM (inactive) | 16.3 µM (inactive) | 31.3 µM (inactive) | 24.4 µM (inactive) |
| CC(=O)OCC12CN(C#N)C3C4COC(CC41)C1(C(=O)N(C)c4ccccc41)C32 (stereo not given) | 16.9 µM (inactive) | 19.3 µM (inactive) | 49.1 µM (inactive) | 18.2 µM (inactive) |  | 33 µM (inactive) | 9.73 µM (inactive) | 21 µM (inactive) | 12.1 µM (inactive) | 28.3 µM (inactive) | 20.6 µM (inactive) | 33.2 µM (inactive) | 19.3 µM (inactive) | 19.5 µM (inactive) | 19.2 µM (inactive) | 16.7 µM (inactive) | 33.4 µM (inactive) | 13.3 µM (inactive) |
| CC1=C(C)C2(C#N)C(=O)N3C(=NC(c4ccccc4)NC3c3ccccc3)C2(C#N)C(c2ccccc2)N1 (stereo not given) | > 100 µM (inactive) | > 100 µM (inactive) | > 100 µM (inactive) | > 100 µM (inactive) |  | > 100 µM (inactive) | > 100 µM (inactive) | > 100 µM (inactive) | > 100 µM (inactive) | > 100 µM (inactive) | > 100 µM (inactive) | > 100 µM (inactive) | > 100 µM (inactive) | > 100 µM (inactive) | > 100 µM (inactive) | > 100 µM (inactive) | > 100 µM (inactive) | > 100 µM (inactive) |
| CN1C(Cl)=NS(=O)(=O)c2ccccc21 | > 100 µM (inactive) | > 100 µM (inactive) | > 100 µM (inactive) | > 100 µM (inactive) | > 100 µM (inactive) | > 100 µM (inactive) |  |  | 28 µM (inactive) | > 100 µM (inactive) | > 100 µM (inactive) | > 100 µM (inactive) | > 100 µM (inactive) | > 100 µM (inactive) | > 100 µM (inactive) | 43 µM (inactive) | > 100 µM (inactive) | > 100 µM (inactive) |
| Cc1ccc(/C=C2\CN(C)CC3C(c4ccc(C)cc4)=C(C#N)C(=O)NC23)cc1 (stereo not given) | > 50 µM (inactive) | > 50 µM (inactive) | > 50 µM (inactive) | > 50 µM (inactive) |  | > 50 µM (inactive) | > 50 µM (inactive) | > 50 µM (inactive) | > 50 µM (inactive) | > 50 µM (inactive) | > 50 µM (inactive) | > 50 µM (inactive) | > 50 µM (inactive) | > 50 µM (inactive) | > 50 µM (inactive) | > 50 µM (inactive) | > 50 µM (inactive) |  |
| C1CCCCC2(CCCCCCCCC3(CCC1)OCCO3)OCCO2 | > 100 µM (inactive) | > 100 µM (inactive) | > 100 µM (inactive) | > 100 µM (inactive) | > 100 µM (inactive) | > 100 µM (inactive) |  | > 100 µM (inactive) | > 100 µM (inactive) | > 100 µM (inactive) | > 100 µM (inactive) | > 100 µM (inactive) | > 100 µM (inactive) | > 100 µM (inactive) | > 100 µM (inactive) | > 100 µM (inactive) | > 100 µM (inactive) | < 0.01 µM (active) |
| c1ccc([P+](CCCCCC[P+](c2ccccc2)(c2ccccc2)c2ccccc2)(c2ccccc2)c2ccccc2)cc1 | 1.59 µM (inactive) | 5.94 µM (inactive) | 59.4 µM (inactive) | 15.3 µM (inactive) | 5.24 µM (inactive) | 7.24 µM (inactive) |  | 37.3 µM (inactive) | 7.24 µM (inactive) | 24 µM (inactive) | 12.2 µM (inactive) | 8.51 µM (inactive) | 4.51 µM (inactive) | 13.3 µM (inactive) | 17.5 µM (inactive) | 2.68 µM (inactive) | 34.3 µM (inactive) | > 100 µM (inactive) |
